Laboratory results: patent US20050142068A1, “Retinal toxicity screening methods” (Pfizer Inc, priority 2003, published 2005)

What was measured:
retina = settings: literature reports; cited from earlier work
RPE-J cells = experiment: Assay to identify retinal toxic agents: integrin marker fluorescence in RPE-J cells, confocal microscopy; format: cell-based, rat; settings: 50 nM integrin marker, one hour
Source text: For each figure, the photomicrograph on the left is made using two excitation wavelengths—488 nm (argon laser) for the integrin marker peptide and 633 nm (HeNe laser) for TOTO®-3 iodide. The integrin peptide marker fluoresces at 520 nm and TOTO®-3 iodide fluoresces at 660 nm. The photomicrograph on the right is of the identical cells as those in the left micrograph, but under 488 nm excitation alone.
RPE-J cells were plate cultured in high glucose DMEM medium (cat. no. 10313021, Invitrogen, Carlsbad, Calif.) containing 4% fetal calf serum (cat. no. 12319018, Invitrogen) at 33° C. under 5-10% CO2 atmosphere. When confluence of about 80% was reached (after about seven days), the medium was removed from the culture dish and the cells on the bottoms were washed with 0.25% trypsin-EDTA (cat. no. 25200056, Invitrogen) for three and one-half to five minutes. Following trypsinization the cells were centrifuged at 500-600 RPM for five minutes and resuspended in high glucose DMEM medium containing 4% fetal calf serum. The cells were plated in a four-chamber slide (1.7 cm^2 per chamber) at 50,000 cells per chamber. When confluence of about 80% was reached, the cells were gently wash the cells in warm phosphate buffered saline. […] Fluorescence was detected at 520 nm for the integrin marker peptide and at 660 nm for TOTO®-3 iodide.

## CN(C)CCCN1c2ccccc2Sc2ccc(Cl)cc21 [chlorpromazine]
retina
  damage to the retina reported as a result of exposure: retinopathy

## CCN(CC)CCCC(C)Nc1ccnc2cc(Cl)ccc12 (stereo not shown) [cloroquine]
retina
  damage to the retina reported as a result of exposure: retinopathy

## CC/C(=C(\c1ccccc1)c1ccc(OCCN(C)C)cc1)c1ccccc1 [tamoxifen]
RPE-J cells; 1 μM tamoxifen, 488 nm excitation (FIG. 3)
  visibility of integrin peptide marker fluorescence: clearly visible
RPE-J cells; 25 μM tamoxifen, 488 nm excitation (FIG. 4)
  visibility of integrin peptide marker fluorescence: highly visible
